The target of data set [1] is T1, CYP2A6 (Homo sapiens, UniProt P11509).
T1 sequence (P11509 whole entry): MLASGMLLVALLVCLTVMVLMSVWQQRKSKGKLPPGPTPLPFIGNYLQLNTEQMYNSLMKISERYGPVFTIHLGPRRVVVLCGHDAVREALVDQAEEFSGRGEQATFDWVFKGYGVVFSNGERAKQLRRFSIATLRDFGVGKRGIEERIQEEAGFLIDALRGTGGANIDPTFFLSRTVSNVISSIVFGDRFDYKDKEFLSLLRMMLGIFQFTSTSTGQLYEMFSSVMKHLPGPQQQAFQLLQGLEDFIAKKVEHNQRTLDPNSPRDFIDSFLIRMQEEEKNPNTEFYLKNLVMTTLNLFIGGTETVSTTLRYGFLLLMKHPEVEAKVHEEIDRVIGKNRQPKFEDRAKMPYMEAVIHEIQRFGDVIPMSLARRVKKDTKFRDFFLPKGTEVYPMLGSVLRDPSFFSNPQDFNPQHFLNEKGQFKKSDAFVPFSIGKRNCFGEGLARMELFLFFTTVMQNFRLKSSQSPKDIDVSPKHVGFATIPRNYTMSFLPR
Description: Inhibitory activity of 20 uM SPP100 on 39 Pmoles of cDNA-derived CYP2A6 enzyme in microsome prepared from human lymphoblastoid cell line. The format is ADME, microsomes. The arrangement: conc 20 uM, interact cpd conc 3 uM. Conditions: probe coumarine.

A short description of data set [2]: % of radioactivity recovered as aliskiren in plasma following oral administration of [14C] aliskiren hemifumarate at 100 mg.Kg-1 level in rat. The data set is classed as ADME, organism-based, Albino HAN:WIST. To be noted: in vivo.
Data set [3] addresses T1, CYP2A6. The data set is described as follows: Inhibitory activity of 20 uM SPP100 on 37 Pmoles of cDNA-derived CYP2A6 enzyme in microsome prepared from human lymphoblastoid cell line. The data set is classed as ADME, microsomes. Details: conc 20 uM, interact cpd conc 3 uM. Conditions: probe coumarine.
Data set [4] can be described thus: Oral clearance of SPP100 following single oral dose of SPP100 300 mg capsule studied in healthy human. To be noted: plasma. The data set is classed as ADME, organism-based.
The nature of data set [5]: % SPP100 recovered in hydrolysed following single intravenous administration of 10 mg.Kg-1 [14C] aliskiren hemifumarate in male rat. The format is ADME, organism-based, HAN:WIST(SPF), Bile. Conditions: in vivo.
The nature of data set [6]: Oral clearance of SPP100 following single oral dose of SPP100 600 mg capsule studied in healthy human. The data set is classed as ADME, organism-based. Conditions: plasma.
The nature of data set [7]: % SPP100 in urine and faeces following single oral dose of 300 mg [14C]SPP100 studied in healthy men. The format is ADME, organism-based, Urine/Feces. Conditions: human, in vivo, at 300 mg.
A short description of data set [8]: Excretion of radioactivity (48-72h) in urine following single oral dose of 100 mg.Kg-1 [14C] aliskiren hemifumarate in rat. The format is ADME, organism-based, Albino HAN:WIST. To be noted: in vivo.
The nature of data set [9]: Excretion of radioactivity (72-96h) in faeces following single oral dose of 100 mg.Kg-1 [14C] aliskiren hemifumarate in rat. The data set is classed as ADME, organism-based, Albino HAN:WIST, Feces. Conditions: in vivo.
Data set [10] in a line: Excretion of radioactivity (0-24h) in faeces following single intravenous dose of 10 mg.Kg-1 [14C] aliskiren hemifumarate in rat. The format is ADME, organism-based, Albino HAN:WIST, Feces. Conditions: in vivo.
A short description of data set [11]: Tmax (0-168h) of total radioactivity following single intravenous administration of [14C] aliskiren hemifumarate at 1 mg.Kg-1 level in marmoset. The format is ADME, organism-based, Callithrix jacchus, Plasma. Conditions: in vivo.
The next data set concerns the target Cytochrome P450 2E1 (Homo sapiens, UniProt P05181). Description: Metabolic clearance (ul.min.nmol-1 CYP) of aliskiren hemifumarate for CYP2E1 was determined in human liver microsome incubated with [14C]SPP100 hemifumarate. The data set is classed as ADME. To be noted: microsomes. Background: Microsomes from liver hold many membrane-bound enzymes, among them those of drug oxidation.

Data set [12] in a line: Excretion of radioactivity (72-96h) in faeces following single intravenous dose of 10 mg.Kg-1 [14C] aliskiren hemifumarate in rat. The format is ADME, organism-based, Albino HAN:WIST, Feces. To be noted: in vivo.
Data set [13] in a line: Tmax of radioactivity following repeated oral administration of [14C] aliskiren hemifumarate at 100 mg.Kg-1 level studied after 2h of dosing on day 10 in rat. The format is ADME, organism-based, Albino HAN:WIST. To be noted: in vivo.
Data set [14] is described as follows: Excretion of radioactivity (0-24h) in urine following single intravenous dose of 10 mg.Kg-1 [14C] aliskiren hemifumarate in rat. The data set is classed as ADME, organism-based, Albino HAN:WIST. Conditions: in vivo.
Data set [15] in a line: Excretion (0-24h) of radioactivity in urine following intravenous administration of [14C] aliskiren hemifumarate at 1 mg.Kg-1 level in marmoset. The data set is classed as ADME, organism-based, Callithrix jacchus. Conditions: in vivo.
The nature of data set [16]: AUC (0-96 or 0-168h) of total radioactivity following single oral administration of [14C] aliskiren hemifumarate at 3 mg.Kg-1 level in marmoset. The format is ADME, organism-based, Callithrix jacchus, Plasma. Conditions: in vivo.
Data set [17] in a line: Excretion of radioactivity (0-24h) in urine following single oral dose of 500 mg.Kg-1 [14C] aliskiren hemifumarate in mouse. Conditions: in vivo. The format is ADME, organism-based, TgRasH2.
Data set [18] is described as follows: Excretion (0-168h) of radioactivity in urine following intravenous administration of [14C] aliskiren hemifumarate at 1 mg.Kg-1 level in marmoset. The format is ADME, organism-based, Callithrix jacchus. To be noted: in vivo.
Data set [19] is described as follows: AUC of unlabeled aliskiren hemifumarate following single oral dose of aliskiren hemifumarate at 500 mg.Kg-1 level in mouse. The data set is classed as ADME, organism-based. Conditions: TgRasH2, mouse, plasma.
Data set [20] can be described thus: AUCspec of aliskiren hemifumarate following 2 week oral dosing of aliskiren hemifumarate at 10 mg.Kg-1 level studied on day 1 in male Callithrix jacchus. The data set is classed as ADME, organism-based, Plasma. To be noted: marmoset, in vivo, 336 h.
Data set [21] in a line: AUCspec of aliskiren hemifumarate following 2 week oral dosing of aliskiren hemifumarate at 100 mg.Kg-1 level studied on day 1 in female Callithrix jacchus. The format is ADME, organism-based, Plasma. Conditions: marmoset, in vivo, 336 h.
Data set [22] in a line: t1/2 of aliskiren hemifumarate following 2 week oral dosing of aliskiren hemifumarate at 50 mg.Kg-1 level studied on day 14 in female Callithrix jacchus. The data set is classed as ADME, organism-based. Conditions: marmoset, plasma.
The nature of data set [23]: Cmax of aliskiren hemifumarate following 2 week oral dosing of aliskiren hemifumarate at 10 mg.Kg-1 level studied on […] in male Callithrix jacchus. The data set is classed as ADME, organism-based. To be noted: marmoset, plasma.
Data set [24] in a line: Cmaxspec of aliskiren hemifumarate following 2 week oral dosing of aliskiren hemifumarate at 100 mg.Kg-1 level studied on day 1 in male Callithrix jacchus. The data set is classed as ADME, organism-based, Plasma. Conditions: marmoset, in vivo, 336 h.
A short description of data set [25]: AUC (0-96 or 0-168h) of unlabeled aliskiren hemifumarate following single oral administration of aliskiren hemifumarate at 3 mg.Kg-1 level in marmoset. The format is ADME, organism-based, Callithrix jacchus. Conditions: plasma.
Data set [26] is described as follows: Tmax of aliskiren hemifumarate following 2 week oral dosing of aliskiren hemifumarate at 50 mg.Kg-1 level studied on day 14 in female Callithrix jacchus. The data set is classed as ADME, organism-based. Conditions: marmoset, plasma.
A short description of data set [27]: AUC (0-24h) of aliskiren hemifumarate following 4 week oral dietary dosing of aliskiren hemifumarate at 1000 mg.Kg-1 level in female mouse. The data set is classed as ADME, organism-based. Conditions: CB6F1-TGrasH2, mouse, plasma.
Data set [28] can be described thus: Effect of 2 week oral dosing of aliskiren hemifumarate at 50 mg.Kg-1 level on plasma creatinine level in female Callithrix jacchus. Conditions: marmoset, 336 h. The format is toxicity, organism-based.
Data set [29] in a line: AUC(0-24h) of aliskiren hemifumarate following 2 week oral dosing of aliskiren hemifumarate at 100 mg.Kg-1 level studied on day 14 in female Callithrix jacchus. To be noted: marmoset, plasma. The format is ADME, organism-based.
A short description of data set [30]: Cmax of aliskiren hemifumarate following single dosing of SPP100B oral solution at 40 mg level studied on day 1 in men. Conditions: male, human, plasma. The data set is classed as ADME, organism-based.
A short description of data set [31]: Tmax of aliskiren hemifumarate following 4 week oral dietary dosing of aliskiren hemifumarate at 1500 mg.Kg-1 level in male mouse. The data set is classed as ADME, organism-based. Conditions: CB6F1-TGrasH2, mouse, in vivo.
The nature of data set [32]: AUC (0-24h)/dose of aliskiren hemifumarate following 4 week oral dietary dosing of aliskiren hemifumarate at 1000 mg.Kg-1 level in female mouse. The format is ADME, organism-based, CB6F1-TGrasH2, Plasma. To be noted: in vivo.
Data set [33] can be described thus: AUC (0-24h)/dose of aliskiren hemifumarate following 4 week oral dietary dosing of aliskiren hemifumarate at 500 mg.Kg-1 level in male mouse. The format is ADME, organism-based, CB6F1-TGrasH2, Plasma. Conditions: in vivo.

We go through three compounds from ChEMBL document CHEMBL3508693 (2016).

Chain of Cytochrome P450 2E1 (P05181 whole entry): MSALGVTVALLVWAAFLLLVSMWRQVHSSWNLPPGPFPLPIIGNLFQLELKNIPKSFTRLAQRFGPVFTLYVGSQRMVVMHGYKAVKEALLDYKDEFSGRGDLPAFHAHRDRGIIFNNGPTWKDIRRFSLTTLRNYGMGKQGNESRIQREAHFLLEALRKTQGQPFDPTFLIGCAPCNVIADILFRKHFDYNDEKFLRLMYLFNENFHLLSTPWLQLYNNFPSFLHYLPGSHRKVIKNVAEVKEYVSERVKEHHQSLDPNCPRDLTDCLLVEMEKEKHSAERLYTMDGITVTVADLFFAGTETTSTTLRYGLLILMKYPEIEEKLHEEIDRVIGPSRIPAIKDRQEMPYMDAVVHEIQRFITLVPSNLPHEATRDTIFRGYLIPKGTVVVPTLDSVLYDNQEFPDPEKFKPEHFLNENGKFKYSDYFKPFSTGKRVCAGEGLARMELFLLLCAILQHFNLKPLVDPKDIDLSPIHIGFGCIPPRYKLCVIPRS

On to `COCCCOc1cc(C[C@@H](C[C@H](N)[C@@H](O)C[C@H](C(=O)NCC(C)(C)C(N)=O)C(C)C)C(C)C)ccc1OC`, for which the inhibition (usually the drop in the measured response relative to a control, in per cent) at 20 µM at CYP2A6 [1] is -2.1%; on CYP2A6 [3], 2.6%. Moreover, the Compound recovery is over 40% in [2], 61.8% in data set [5] and 79.8% in data set [7]. For the same compound, the CL/F (commonly the apparent clearance, not corrected for the fraction that reaches the circulation) in [4] was 4230 mL/min; in data set [6] it was 3700 mL/min.

For `COCCCOc1cc(C[C@@H](C[C@H](N)[C@@H](O)C[C@H](C(=O)NCC([14CH3])([14CH3])C(N)=O)C(C)C)C(C)C)ccc1OC.O=C(O)/C=C/C(=O)O`, the Radiolabel recovery in [8] is reported as 0.04%; in data set [9] it was 0.17%; in [10], 55.7%; in data set [12], 2.07%; in [14], 35.6%; in data set [15], 0.61%. The Radiolabel recovery in [17] came out at 0.47%; in [18] it was 4.04%. Moreover, the Tmax (commonly the time from dosing to the highest level) in [11] was 4.98 min. The compound further returned a CL on Cytochrome P450 2E1 of 1.4 µL·min/nmol. Also, the “Tmax(10)” value in [13] is on record as 218 h. In [16], the AUC (usually concentration integrated over time) worked out at 4.84 µmol·h/L.

For `COCCCOc1cc(C[C@@H](C[C@H](N)[C@@H](O)C[C@H](C(=O)NCC(C)(C)C(N)=O)C(C)C)C(C)C)ccc1OC.COCCCOc1cc(C[C@@H](C[C@H](N)[C@@H](O)C[C@H](C(=O)NCC(C)(C)C(N)=O)C(C)C)C(C)C)ccc1OC.O=C(O)/C=C/C(=O)O` [ALISKIREN FUMARATE], in [19], the area under the curve (AUC) amounted to 7.04 µM·h. Moreover, the AUC normalised was 2.2 ((ug.h.ml-1)/(mg/kg) in data set [20], 0.84 ((ug.h.ml-1)/(mg/kg) in data set [21], 2.28 ((ng/mL).hours)/(mg/kg/day) in [32] and 3.41 ((ng/mL).hours)/(mg/kg/day) in [33]. The half-life (commonly how long it takes for the measured level to halve) in [22] is 491 min. Moreover, the results for the Cmax in data set [23] and in data set [30] were 5770 ng/mL and 5.1 ng/mL, respectively. The Cmax normalised in [24] is 0.072 (ug/ml)/(mg/kg). For the same compound, the AUC at 168 h in [25] came out at 4.55 µM·h. Besides, the figures for the Tmax in data set [26] and in data set [31] were 1 h and 3 h, respectively. In [27], the AUC(0-t) – broadly, exposure summed from dosing to a finite time, without extrapolation to infinity – at 24 h was found to be 2280 ng·h/mL. Further, the CREAT_CHANGE_BY in data set [28] worked out at 130%. The compound also yielded an AUC at 24 h in [29] of 142 µg·h/mL.
